The results in this text go back to the supplement of paper PMC10307832.

Test in all cases: relative viability (nuclei count vs DMSO), 5 days (fraction); higher = more cells survive
Compound in assay [1]: C(C(=O)C(=O)O)Br [Bromopyruvate] + O=C(CCCCCCC(=O)Nc1ccccc1)NO [Vorinostat] (partner 1 µM)
The procedure, abridged:
(§1)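 Lung cancer cell lines were pin-tool dosed in 1536-well plates on the day after seeding, with either a lone drug or a fixed anchor-drug dose plus five library-drug doses (not always all listed) in √10 steps. Nuclei were counted on 4× images after 5 days. Relative viability is the ratio of treated-well to vehicle-well nuclei counts, with each value a median of duplicate plates.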

Compound in the assay “Bicalutamide + Dasatinib”: CC(O)(CS(=O)(=O)c1ccc(F)cc1)C(=O)Nc1ccc(C#N)c(C(F)(F)F)c1 [Bicalutamide] + Cc1nc(Nc2ncc(C(=O)Nc3c(C)cccc3Cl)s2)cc(N2CCN(CCO)CC2)n1 [Dasatinib] (partner 0.075 µM)
The procedure, abridged:
as §1

Compound in assay [2]: CC(O)(CS(=O)(=O)c1ccc(F)cc1)C(=O)Nc1ccc(C#N)c(C(F)(F)F)c1 [Bicalutamide] + Nc1ncn([C@H]2C[C@H](O)[C@@H](CO)O2)c(=O)n1 [Decitabine] (partner 2 µM)
A digest of the protocol: as §1

Compound in assay [3]: CC(O)(CS(=O)(=O)c1ccc(F)cc1)C(=O)Nc1ccc(C#N)c(C(F)(F)F)c1 [Bicalutamide] + O=C(CCCCCCC(=O)Nc1ccccc1)NO [Vorinostat] (partner 1 µM)
The procedure, abridged:
as §1

As for NCI-H1915, the relative viability in assay [1] (first compound 1 µM) was found to be 0.5; in assay [1] (first compound 3.162 µM), 0.495; in assay [1] (first compound 10 µM), 0.529; in assay [1] (first compound 31.62 µM), 0.462; in assay [1] (first compound 100 µM) it was 0.423; with Bicalutamide + Dasatinib (first compound 0.08 µM) it was 0.317. Further, the relative viability in the assay with Bicalutamide + Dasatinib (first compound 0.253 µM) amounted to 0.29; with Bicalutamide + Dasatinib (first compound 0.8 µM), 0.301; with Bicalutamide + Dasatinib (first compound 2.53 µM) it was 0.252; in assay [2] (first compound 0.08 µM), 0.28; in assay [2] (first compound 0.253 µM) it was 0.26; in assay [2] (first compound 0.8 µM), 0.282. Also, the relative viability in assay [2] (first compound 2.53 µM) stood at 0.278; in assay [3] (first compound 0.08 µM), 0.536; in assay [3] (first compound 0.253 µM), 0.456; in assay [3] (first compound 0.8 µM), 0.584; in assay [3] (first compound 2.53 µM), 0.522.

Take NCI-H3122: the relative viability amounted to 1.05 in assay [1] (first compound 1 µM); 0.991 in assay [1] (first compound 3.162 µM); 1.11 in assay [1] (first compound 10 µM); 0.829 in assay [1] (first compound 31.62 µM); 0.718 in assay [1] (first compound 100 µM); 0.922 with Bicalutamide + Dasatinib (first compound 0.08 µM). Besides, the relative viability with Bicalutamide + Dasatinib (first compound 0.253 µM) stood at 0.791; with Bicalutamide + Dasatinib (first compound 0.8 µM), 0.938; with Bicalutamide + Dasatinib (first compound 2.53 µM), 0.889; in assay [2] (first compound 0.08 µM), 0.4; in assay [2] (first compound 0.253 µM), 0.45; in assay [2] (first compound 0.8 µM) it was 0.449. Also, the relative viability in assay [2] (first compound 2.53 µM) was 0.455; in assay [3] (first compound 0.08 µM), 1.01; in assay [3] (first compound 0.253 µM) it was 0.946; in assay [3] (first compound 0.8 µM), 1.07; in assay [3] (first compound 2.53 µM), 0.887.

Regarding NCI-H441, the relative viability in assay [1] (first compound 1 µM) is 0.828; in assay [1] (first compound 3.162 µM) it was 0.856; in assay [1] (first compound 10 µM) it was 0.761; in assay [1] (first compound 31.62 µM), 0.623; in assay [1] (first compound 100 µM), 0.607; with Bicalutamide + Dasatinib (first compound 0.08 µM) it was 0.646. The relative viability amounted to 0.63 with Bicalutamide + Dasatinib (first compound 0.253 µM); 0.664 with Bicalutamide + Dasatinib (first compound 0.8 µM); 0.534 with Bicalutamide + Dasatinib (first compound 2.53 µM); 0.264 in assay [2] (first compound 0.08 µM); 0.23 in assay [2] (first compound 0.253 µM); 0.22 in assay [2] (first compound 0.8 µM). In addition, the relative viability worked out at 0.257 in assay [2] (first compound 2.53 µM); 0.924 in assay [3] (first compound 0.08 µM); 0.755 in assay [3] (first compound 0.253 µM); 0.778 in assay [3] (first compound 0.8 µM); 0.751 in assay [3] (first compound 2.53 µM).

With NCI-H2170, the relative viability in assay [1] (first compound 1 µM) worked out at 0.911; in assay [1] (first compound 3.162 µM), 0.853; in assay [1] (first compound 10 µM), 0.79; in assay [1] (first compound 31.62 µM) it was 0.802; in assay [1] (first compound 100 µM) it was 0.705; in the assay with Bicalutamide + Dasatinib (first compound 0.08 µM), 0.532. Further, the relative viability with Bicalutamide + Dasatinib (first compound 0.253 µM) amounted to 0.497; with Bicalutamide + Dasatinib (first compound 0.8 µM), 0.584; with Bicalutamide + Dasatinib (first compound 2.53 µM) it was 0.563; in assay [2] (first compound 0.08 µM), 0.442; in assay [2] (first compound 0.253 µM) it was 0.441; in assay [2] (first compound 0.8 µM), 0.515. Moreover, the relative viability in assay [2] (first compound 2.53 µM) was 0.496; in assay [3] (first compound 0.08 µM), 0.794; in assay [3] (first compound 0.253 µM), 0.741; in assay [3] (first compound 0.8 µM), 0.867; in assay [3] (first compound 2.53 µM) it was 0.803.

As for SW 900, the relative viability in assay [1] (first compound 1 µM) is 0.393; in assay [1] (first compound 3.162 µM), 0.487; in assay [1] (first compound 10 µM), 0.559; in assay [1] (first compound 31.62 µM), 0.377; in assay [1] (first compound 100 µM), 0.476; in the assay with Bicalutamide + Dasatinib (first compound 0.08 µM) it was 0.856. In addition, the relative viability came out at 0.445 with Bicalutamide + Dasatinib (first compound 0.253 µM); 0.658 with Bicalutamide + Dasatinib (first compound 0.8 µM); 0.509 with Bicalutamide + Dasatinib (first compound 2.53 µM); 0.416 in assay [2] (first compound 0.08 µM); 0.413 in assay [2] (first compound 0.253 µM); 0.5 in assay [2] (first compound 0.8 µM). The relative viability in assay [2] (first compound 2.53 µM) came to 0.476; in assay [3] (first compound 0.08 µM), 0.601; in assay [3] (first compound 0.253 µM) it was 0.281; in assay [3] (first compound 0.8 µM), 0.394; in assay [3] (first compound 2.53 µM), 0.398.

For the cell line NCI-H1395, the relative viability came to 1.03 in assay [1] (first compound 1 µM); 0.791 in assay [1] (first compound 3.162 µM); 0.649 in assay [1] (first compound 10 µM); 0.683 in assay [1] (first compound 31.62 µM); 0.681 in assay [1] (first compound 100 µM); 0.406 in the assay with Bicalutamide + Dasatinib (first compound 0.08 µM). Also, the relative viability stood at 0.404 with Bicalutamide + Dasatinib (first compound 0.253 µM); 0.414 in the assay with Bicalutamide + Dasatinib (first compound 0.8 µM); 0.353 with Bicalutamide + Dasatinib (first compound 2.53 µM); 0.754 in assay [2] (first compound 0.08 µM); 0.672 in assay [2] (first compound 0.253 µM); 0.787 in assay [2] (first compound 0.8 µM). Further, the relative viability stood at 0.806 in assay [2] (first compound 2.53 µM); 0.882 in assay [3] (first compound 0.08 µM); 0.666 in assay [3] (first compound 0.253 µM); 0.792 in assay [3] (first compound 0.8 µM); 0.624 in assay [3] (first compound 2.53 µM).

With NCI-H358, the relative viability came out at 0.77 in assay [1] (first compound 1 µM); 0.607 in assay [1] (first compound 3.162 µM); 0.626 in assay [1] (first compound 10 µM); 0.541 in assay [1] (first compound 31.62 µM); 0.505 in assay [1] (first compound 100 µM); 0.154 with Bicalutamide + Dasatinib (first compound 0.08 µM). Besides, the relative viability with Bicalutamide + Dasatinib (first compound 0.253 µM) is 0.14; with Bicalutamide + Dasatinib (first compound 0.8 µM), 0.16; in the assay with Bicalutamide + Dasatinib (first compound 2.53 µM), 0.145; in assay [2] (first compound 0.08 µM), 0.224; in assay [2] (first compound 0.253 µM), 0.224; in assay [2] (first compound 0.8 µM), 0.193. For the same cell line, the relative viability in assay [2] (first compound 2.53 µM) worked out at 0.204; in assay [3] (first compound 0.08 µM) it was 0.804; in assay [3] (first compound 0.253 µM) it was 0.604; in assay [3] (first compound 0.8 µM), 0.662; in assay [3] (first compound 2.53 µM), 0.544.

As to PC-14, the relative viability in assay [1] (first compound 1 µM) worked out at 0.755; in assay [1] (first compound 3.162 µM), 0.706; in assay [1] (first compound 10 µM), 0.587; in assay [1] (first compound 31.62 µM) it was 0.516; in assay [1] (first compound 100 µM), 0.482; with Bicalutamide + Dasatinib (first compound 0.08 µM), 0.263. In addition, the relative viability stood at 0.223 with Bicalutamide + Dasatinib (first compound 0.253 µM); 0.264 in the assay with Bicalutamide + Dasatinib (first compound 0.8 µM); 0.18 with Bicalutamide + Dasatinib (first compound 2.53 µM); 0.243 in assay [2] (first compound 0.08 µM); 0.182 in assay [2] (first compound 0.253 µM); 0.239 in assay [2] (first compound 0.8 µM). The relative viability in assay [2] (first compound 2.53 µM) is 0.204; in assay [3] (first compound 0.08 µM) it was 0.854; in assay [3] (first compound 0.253 µM) it was 0.605; in assay [3] (first compound 0.8 µM), 0.732; in assay [3] (first compound 2.53 µM) it was 0.574.
